From patent US6872732B2, “Heterocyclic derivatives and medicinal use thereof” (Kyoto Pharmaceutical Industries, Ltd., priority 2001, dated 2005)
Read-outs that look alike come from different tables or passages of the source.

How the values were obtained:
male KK-A^y mice = test: Decrease of plasma glucose and triglyceride in KK-Ay mice; assay type: in vivo; conditions: non-fasting, 10 mg/kg/day orally for 4 consecutive days, 24 hours after final administration, vs control group
Description: The test compounds (compounds of Examples 2, 6, 8, 16, 26, 27 and 31) were suspended in 5% gum arabic solution and administered (10 mg/kg/day) orally to the administration group for 4 consecutive days from the next day. The 5% gum arabic solution was orally administered to the control group.

[1] = system: 6-week-old female Wistar rats; conditions: 30 and 100 mg/kg/day orally, 2 consecutive weeks
Description: Using 6-week-old female Wistar rats, toxicity by repeat administration was examined.
(§1) The rats were grouped (6 rats per group) into a control group and test compound (compound of Example 6) administration groups (30 and 100 mg/kg/day), such that the mean and the standard deviation of the body weight of the rats were nearly the same. The test compound was suspended in 0.5% methylcellulose solution and administered orally for 2 consecutive weeks from the next day. The 0.5% methylcellulose solution was orally administered to the control group. The rats were fasted for 16 hr from the last day of administration, anesthetized by intraperitoneal administration of pentobarbital sodium (50 mg/kg) 24 hr after the final administration and the blood was drawn. Using EDTA-added blood, hematocrit value and erythrocyte count were measured, and using serum, AST (GOT) and ALT (GPT) were measured. In addition, the total blood volume was calculated. The white fat around the uterus, and the liver and heart were removed and wet weights thereof were measured.

male db/db mice = conditions: for Decrease (%) in glucose level / Decrease (%) in triglyceride: plasma, 24 hours after final administration
Description: Using db/db mice genetically showing high plasma glucose, hypertriglyceridemia, insulin resistance and obesity, the pharmacological activity of the test compound of Example 6 was examined.
Blood was drawn under a non-fasting state from the tail vein of male db/db mice, the glucose level and triglyceride level of the plasma were measured using commercially available assay kits (glucose CII-test WAKO and triglyceride G-test WAKO, Wako Pure Chemical Industries, Ltd.). The mice were grouped (6 mice per group) into a control group and test compound (compound of Example 6) administration groups (3 and 10 mg/kg/day), such that the mean and standard deviation of the body weight and the plasma glucose and plasma triglyceride levels in each group were nearly the same. The test compound was suspended in 0.5% methylcellulose solution and administered orally for 2 consecutive weeks from the next day. The 0.5% methylcellulose solution was orally administered to the control group. Blood was drawn under a non-fasting state from the tail vein 24 hours after the final administration and the glucose and triglyceride levels of the plasma were measured. The decrease in the plasma glucose and triglyceride levels was calculated from the following formula.

6-week-old male SD rats = conditions: 30 and 100 mg/kg/day orally, 4 consecutive weeks
Description: Using 6-week-old male SD rats, toxicity by repeat administration was examined.
as §1, with “for 4” for “for 2”, “the epididymides,” for “the uterus,”

[2] = 3 and 10 mg/kg/day orally, 2 weeks
[3] = 3 mg/kg/day orally for 2 consecutive weeks
[4] = 10 mg/kg/day orally for 2 consecutive weeks

For `CC=CC=CC(=O)N1Cc2cc(OCCc3nc(-c4ccccc4)oc3C)ccc2C[C@H]1C(=O)O` [Example 6], the “Decrease (%) in glucose level” value (male KK-A^y mice) was 45.9%, the “Decrease (%) in triglyceride” value (male KK-A^y mice) was 45.7% and the “body weight, difference from control group” value [1] was “no significant difference”. The “erythrocyte count, difference from control group” value [1] was “no significant difference”, the “hematocrit value, difference from control group” value [1] was “no significant difference” and the “total blood volume, difference from control group” value [1] was “no significant difference”. For the same compound, the “weight of the heart, difference from control group” value [1] was “no significant difference”, the “weight of the liver, difference from control group” value [1] was “no significant difference” and the “weight of white fat around the uterus, difference from control group” value [1] was “no significant difference”. The “ALT (GPT), difference from control group” value ([1]; serum) was “no significant difference”, the “AST (GOT), difference from control group” value ([1]; serum) was “no significant difference” and the “plasma glucose level after treatment” value (male db/db mice; [2]) was “almost the normal levels”. For the same compound, the “plasma triglyceride level after treatment” value (male db/db mice; [2]) was “almost the normal levels”, the “Decrease (%) in glucose level” value (male db/db mice; [3]) was 59.9% and the “Decrease (%) in triglyceride” value (male db/db mice; [3]) was 77.1%. The “Decrease (%) in glucose level” value (male db/db mice; [4]) was 64.4%, the “Decrease (%) in triglyceride” value (male db/db mice; [4]) was 78.8% and the “body weight, difference from control group” value (6-week-old male SD rats) was “no significant difference”. The “erythrocyte count, difference from control group” value (6-week-old male SD rats) was “no significant difference”, the “hematocrit value, difference from control group” value (6-week-old male SD rats) was “no significant difference” and the “total blood volume, difference from control group” value (6-week-old male SD rats) was “no significant difference”. The “weight of the heart, difference from control group” value (6-week-old male SD rats) was “no significant difference”, the “weight of the liver, difference from control group” value (6-week-old male SD rats) was “no significant difference” and the “weight of white fat around the epididymides, difference from control group” value (6-week-old male SD rats) was “no significant difference”. The “ALT (GPT), difference from control group” value (6-week-old male SD rats; serum) was “no significant difference” and the “AST (GOT), difference from control group” value (6-week-old male SD rats; serum) was “no significant difference”.
For `CC(C)(C)N.CC=CC=CC(=O)N1Cc2cc(OCCc3nc(-c4ccc(N(C)C)cc4)oc3C)ccc2C[C@H]1C(=O)O` [Example 31, tert-butylamine 7-{2-[2-(4-dimethylaminophenyl)-5-methyloxazol-4-yl]ethoxy}-2-(2,4-hexadienoyl)-1,2,3,4-tetrahydroisoquinoline-(3S)-carboxylate], the “Decrease (%) in glucose level” value (male KK-A^y mice) was 39.4% and the “Decrease (%) in triglyceride” value (male KK-A^y mice) was 20.1%.
For `CC(C)(C)N.CC=CC=CC(=O)N1Cc2cc(OCCc3nc(-c4ccc(C(C)C)cc4)oc3C)ccc2C[C@H]1C(=O)O` [Example 27, tert-butylamine 2-(2,4-hexadienoyl)-7-{2-[2-(4-isopropylphenyl)-5-methyloxazol-4-yl]ethoxy}-1,2,3,4-tetrahydroisoquinoline-(3S)-carboxylate], the “Decrease (%) in glucose level” value (male KK-A^y mice) was 55.8% and the “Decrease (%) in triglyceride” value (male KK-A^y mice) was 73.8%.
`CC(C)(C)N.CC=CC=CC(=O)N1Cc2cc(OCCc3nc(-c4ccc(C(C)(C)C)cc4)oc3C)ccc2C[C@H]1C(=O)O` [Example 16, tert-butylamine 7-{2-[2-(4-tert-butylphenyl)-5-methyloxazol-4-yl]ethoxy}-2-(2,4-hexadienoyl)-1,2,3,4-tetrahydroisoquinoline-(3S)-carboxylate] was tested, and the “Decrease (%) in glucose level” value (male KK-A^y mice) was 60.9% and the “Decrease (%) in triglyceride” value (male KK-A^y mice) was 73.4%.
With `CCCCC=CC(=O)N1Cc2cc(OCCc3nc(-c4ccccc4)oc3C)ccc2C[C@H]1C(=O)O` [Example 2, 2-(2-heptenoyl)-7-[2-(5-methyl-2-phenyloxazol-4-yl)ethoxy]-1,2,3,4-tetrahydroisoquinoline-(3S)-carboxylic acid] the “Decrease (%) in glucose level” value (male KK-A^y mice) was 46.8% and the “Decrease (%) in triglyceride” value (male KK-A^y mice) was 44.9%.
In the case of `CC(C)(C)N.CC=CC=CC(=O)N1Cc2cc(OCCc3nc(-c4ccc(OCc5ccccc5)cc4)oc3C)ccc2C[C@H]1C(=O)O` [Example 26, tert-butylamine 7-{2-[2-(4-benzyloxyphenyl)-5-methyloxazol-4-yl]ethoxy}-2-(2,4-hexadienoyl)-1,2,3,4-tetrahydroisoquinoline-(3S)-carboxylate], the “Decrease (%) in glucose level” value (male KK-A^y mice) is reported as 43.7% and the “Decrease (%) in triglyceride” value (male KK-A^y mice) is reported as 67.8%.
In the case of `CCCC#CC(=O)N1Cc2cc(OCCc3nc(-c4ccccc4)oc3C)ccc2C[C@H]1C(=O)O` [Example 8, 2-(2-hexynoyl)-7-[2-(5-methyl-2-phenyloxazol-4-yl)ethoxy]-1,2,3,4-tetrahydroisoquinoline-(3S)-carboxylic acid], the “Decrease (%) in glucose level” value (male KK-A^y mice) is reported as 46.1% and the “Decrease (%) in triglyceride” value (male KK-A^y mice) is reported as 55.2%.
